Data: PMC8617627, “Novel DYRK1A Inhibitor Rescues Learning and Memory Deficits in a Mouse Model of Down Syndrome” (Pharmaceuticals, 2021)

System: 139-protein kinase panel
Test: Selectivity on protein kinase panel (GINI-index)
Conditions: in words
Protocol: The determination of protein kinase inhibition was performed at the International Centre for Kinase Profiling at the University of Dundee, UK. The method used is a radioactive filter binding assay using ^33P ATP as described in the literature [79]. The ATP concentrations were at or below the calculated Km for ATP for each particular kinase.

COc1ccc2sc(-c3cncc(N)c3)nc2c1 [compound 1, 5-(5-Methoxybenzo[d]thiazol-2-yl)pyridin-3-amine] was tested, and the “Selectivity in the protein kinase panel” value was “high selectivity towards DYRK1A”.
